Values of other authors as cited in patent US20160015711A1, “CALCIUM PTERIN-6-CARBOXYLATE (CaPTERIN-6-COOH) AS A NOVEL IMMUNO-THERAPEUTIC” (SanRx Pharmaceuticals, Inc., priority 2014, published 2016).

Settings: pH <4

**Q.** With `Nc1nc([O-])c2nccnc2n1.Nc1nc([O-])c2nccnc2n1.[Ca+2]` [DCP, dipterinyl calcium pentahydrate] as the compound, how does the “stability under acidic conditions” value read?
**A.** Its value is “breaks down to form CaPterin”.
